Data on one molecule can be found in ChEMBL document CHEMBL4130348, “Structure-activity relationship investigation for benzonaphthyridinone derivatives as novel potent Bruton's tyrosine kinase (BTK) irreversible inhibitors” (Eur J Med Chem, 2017).

Molecules are shown by their SMILES. Activity calls are given as the source filed them. The rule behind the calls is not given here.

The subject of the test is Ramos. The experiment in a line: Cell cycle arrest in human Ramos cells assessed as accumulation at G0/G1 phase up to 10 uM after 48 hrs by propidium iodide staining-based flow cytometric method. The test is classed as functional. Background: A flow cytometer gives signals particle by particle.

Take `C=CC(=O)Nc1cc(-n2c(=O)ccc3cnc4ccc(-n5cccn5)cc4c32)ccc1C`: the outcome was Active.
